Experimental findings from article PMC5238392, “Origin of anti-tumor activity of the cysteine-containing GO peptides and further optimization of their cytotoxic properties” (Scientific Reports, 2017) are described below.

For one experiment, the system named is HT-1080 cells. Description: FITC Annexin V / propidium iodide apoptosis assay, HT-1080. The class given is cell-based, human. The settings on record: 10 μM. The method, then: Already 2 h after administration of 10 μM dose, the system reaches a steady state with 18% of healthy cells, 17% of early apoptotic cells, and 58% of late apoptotic cells. It remains in this state for the entire period of observations, 24 h.
Figure 3 GO-203-induced apoptosis in HT-1080 and ZR-75-1 cells as assessed by FITC Annexin V (AnV) and propidium iodide (PI) double staining. (A–D) Flow cytometry histograms for the cells incubated for 4 h with 10 μM of GO-203 and the untreated (control) cells. (E–H) Apoptotic fractions in the GO-203-treated and untreated (control) cells as a function of incubation time and GO-203 concentration; color coding is explained in the legend. TEXT PRINTED IN THE PICTURE: (B) GO-203: HT-1080: IV.(1.90 %); HT-1080: III.(52.62 %); HT-1080: I.(19.45 %); HT-1080: II.(26.04 %) | (D) GO-203: ZR-75-1: IV.(8.19 %); ZR-75-1: III.(8.65 %); ZR-75-1: I.(37.84 %); ZR-75-1: II.(45.32 %)
(§1) The adherent cells were rinsed with PBS, harvested using trypsin-EDTA solution and suspended in the growth medium. To analyze cell cycle phase distribution, 200 μg/ml of saponin (Fluka, USA), 250 μg/ml RNase A, and 50 μg/ml of propidium iodide (both Sigma-Aldrich, USA) were added to each sample tube, thus obtaining DNA stain buffer. After 1 h incubation at room temperature, the samples were analyzed by flow cytometry. To detect apoptosis by flow cytometry, CellEvent Caspase-3/7 Green Flow Cytometry Assay Kit (Thermo Fisher Scientific, USA) and Annexin-V FITC conjugate (BD Biosciences, USA) in combination with propidium iodide have been employed following the manufacturer’s protocols.
(§2) Cell fluorescence was measured using CytoFLEX (Beckman Coulter, USA) flow cytometer equipped with 3 lasers (405, 488 and 633 nm). Cells were gated on FSC/SSC to remove debris. Mean fluorescence intensity from 10,000 cells was acquired.

A further experiment has as its system ZR-75-1 cells. Description: Caspase 3/7 activation assay (CellEvent / SYTOX), ZR-75-1. It counts as cell-based, human. The settings on record: 10 μM, 4 h, Fig. 4D.
Source text: A complementary perspective on GO-203-induced apoptosis is provided by the caspase 3/7 activation assay, Fig. 4. In both HT-1080 and ZR-75-1, the data offer a clear view of the early and late apoptotic populations. The time dependence illustrated in Fig. 4E,F confirms that the onset of apoptosis occurs sufficiently rapidly in both cell lines – by the time of flow-cytometry observations the system has already approached the steady state. In the literature there is some evidence that activation of executioner caspases may precede the translocation of phosphatidylserine to the outer leaf of the membrane. While this could be in principle relevant for comparison between the Annexin V assay and caspase activation assay, one should bear in mind that in our case both assays offer a snapshot of a fairly advanced apoptotic process.
Figure 4 GO-203-induced apoptosis in HT-1080 and ZR-75-1 cells as assessed by the double staining with CellEvent caspase-3/7 green detection reagent and vital dye SYTOX. (A–D) Flow cytometry histograms for the cells incubated for 4 h with 10 μM of GO-203 and the untreated (control) cells. (E–G) Apoptotic fractions in the GO-203-treated and untreated (control) cells as a function of incubation time and GO-203 concentration. TEXT PRINTED IN THE PICTURE: (B) GO-203: HT-1080: IV.(0.11 %); HT-1080: III.(64.49 %); HT-1080: I.(12.21 %); HT-1080: II.(23.20 %) | (D) GO-203: ZR-75-1: IV.(0.40 %); ZR-75-1: III.(35.18 %); ZR-75-1: I.(28.95 %); ZR-75-1: II.(35.47 %)
as §1, §2

The mark [1] stands for this setting: 4 h, representative plot Fig. 3B.

With “[R]9CQCRRKN [GO-203, in clinical trials]”, in the experiment with HT-1080 cells (2 h after administration), the “early apoptotic cells (Annexin V/PI)” value stood at 17% and the “late apoptotic cells (Annexin V/PI)” value stood at 58%. Besides, in the experiment with HT-1080 cells (2 h after administration (steady state up to 24 h)), the “healthy cells (Annexin V/PI)” value was 18%. In the experiment with HT-1080 cells (setting [1]), the “quadrant I fraction (Annexin V/PI dot plot)” value was determined as 19.45%, the “quadrant II fraction (Annexin V/PI dot plot)” value was 26.04%, the “quadrant III fraction (Annexin V/PI dot plot)” value is reported as 52.62% and the “quadrant IV fraction (Annexin V/PI dot plot)” value is 1.90%. For the same substance, in the experiment with ZR-75-1 cells, the “quadrant I fraction (caspase-3/7 / SYTOX)” value is on record as 28.95%, the “quadrant II fraction (caspase-3/7 / SYTOX)” value came to 35.47%, the “quadrant III fraction (caspase-3/7 / SYTOX)” value came to 35.18% and the “quadrant IV fraction (caspase-3/7 / SYTOX)” value came out at 0.40%.
